Source: US8703936B2, “Compositions and methods for modification of biomolecules” (The Regents of the University of California, priority 2010, dated 2014)
“And” between values parts separate entries of the source, which are not always exact repeats. Identical values can stand only once.

Assays:
[1] = tested on: CHO cells grown with Ac4ManNAz (azide-labeled glycans); assay: Cell-surface labeling of azido glycans on CHO cells and imaging by fluorescence microscopy; format: cell-based, Chinese hamster
Method: BARAC-Fluor (compound 17) was evaluated as a reagent for direct fluorescence imaging of live Chinese hamster ovary (CHO) cells. CHO cells grown either in the presence or absence of 50 μM Ac4ManNAz were treated with […] BARAC-Fluor (compound 17) for 5 min at rt, washed and then imaged (FIG. 9(a)-(h)).
CHO cells were incubated for 3 days in medium containing 50 μM Ac4ManNAz in an eight-well LabTek II chambered cover glass (Nunc). The medium was poured off, and the cells were washed three times with 200 μl of FACS buffer. The cells then were treated with a solution of BARAC-Fluor, diluted from a 1 mM stock solution in DMSO, in FACS buffer for 5 minutes at 5 μM at room temperature. The cells were also treated with Hoechst 33342 dye to stain the nucleus (1:1,000 dilution in medium of a 1 mg/ml stock solution in DMSO) as soon as possible after the addition of BARAC-Fluor. The cells washed four times with 200 μl of FACS buffer, and imaged at room temperature.
For the no-wash experiment the cells were treated as before, but were incubated in a 250 nM solution of BARAC-Fluor in FACS-buffer. After 25 minutes at room temperature Hoechst 33342 dye (1:1,000 dilution in medium of a 1 mg/ml stock solution in DMSO) was added. After an additional 5 minutes, the cells were imaged without washing away excess reagent. […]

[2] = Reaction rate of BARAC with 2-azido-N-isopropylacetamide (1H NMR kinetics); format: physicochemical; settings: CD3CN, 25° C., 1:1 at 9.2 mM, three replicates
Method: The reaction of BARAC (compound 15) and 2-azido-N-isopropylacetamide was monitored by ^1H NMR for 30 min. at 25° C. BARAC and the azidoacetamide were separately dissolved in CD3CN and mixed together in a 1:1 ratio at concentrations at close to 10 mM (9.2 mM). Hexamethyldisilane (approx 0.3 equiv) was used as an internal standard. The percent conversion was calculated by the ratio between the formation of products and hexamethyldisilane as determined by integration. No products other than the regioisomers of addition were apparent by ^1H NMR. The ratio of triazole isomers is complicated by rotamers. The second-order rate constant was determined by plotting 1/[compound 15] versus time. The plot was fit to a linear regression and the slope corresponds to the second-order rate constant. Shown are data from three replicate experiments.

[3] = Stability to chromatography and storage; format: physicochemical; settings: traditional chromatography; storage at room temperature
Text: Oxidation of indole (compound 10) with excess m-CPBA opened the central rings to give the cyclic keto-amide (compound 11), which was unstable to silica-gel purification. These reaction conditions left the terminal alkene untouched. Treatment of the potassium enolate of ketone (compound 11) with trifluoromethanesulfonyl anhydride gave compound 12. Selective reaction of the terminal alkene with a nitrile oxide generated in situ from chlorooxime (compound 13) installed a linker for conjugation to a probe molecule as reported by Huisgen, R. and Gutsmiedl, et al. Huisgen, R. Angew. Chem. Int. Ed., (1963), 2, 565-598; and Gutsmiedl, K.; Wirges, C. T.; Ehmke, V.; Carell, T. Org. Lett., 2009, 11, 2405-2408. Reaction of compound 14 with CsF introduced the strained alkyne in under 30 min at rt. The synthesis of BARAC (compound 15) from compound 9 was accomplished in 6 steps in 18% overall yield (see FIG. 11).

[4] = Reaction rate of BARAC with benzyl azide (1H NMR kinetics); format: physicochemical
Method: The reactivity of BARAC (compound 15) was studied using benzyl azide as a model substrate. The second-order rate constant in acetonitrile at room temperature (rt) was 0.96 M^−1s^−1 (see FIG. 1), over 12-fold higher than the rate constant for DIFO under identical conditions and over 450 times higher than for an unactivated cyclooctyne. The half-life for the reaction of equimolar amounts of BARAC with benzyl azide at 10 mM was about 45 s at rt.
The reaction of BARAC (compound 15) and benzyl azide was monitored by ^1H NMR for 30 min. at 25° C. BARAC and benzyl azide were separately dissolved in CD3CN and mixed together in a 1:1 ratio at concentrations at 10 mM. A 2:1 ratio was used to determine the exact ratio of reagents based on remaining starting material upon completion of the reaction. The percent conversion was calculated by the disappearance of BARAC and benzyl azide relative to the formation of product as determined by integration. No products other than the two regioisomers of addition were apparent by ^1H NMR. The triazole isomers were produced in a ˜1:1 ratio. The second-order rate constant was determined by plotting 1/[compound 15] versus time. The plot was fit to a linear regression and the slope corresponds to the second-order rate constant. Shown in FIG. 1 are data from four replicate experiments.

[5] = Potential background reaction of BARAC with glutathione; format: physicochemical; settings: 5 mM glutathione in CD3CN:D2O (1:2), 2 mM BARAC, rt
Jurkat cells = settings: 1 μM, 1 h at 25° C., 7-AAD (FIG. 5)
Method: Jurkat cells were incubated in the presence (+Az, black bar) or absence (−Az, gray bar) of Ac4ManNAz for 3 d. […] Prior to flow cytometry analysis, half the cells were treated with 7-amino-actinomycin D (7-AAD) following the procedure reported at http://www.bdbiosciences.com/external_files/pm/doc/tds/cell_bio/live/web_enabled/68981E—559925.pdf. The samples were diluted and analyzed by flow cytometry. The error bars represent standard deviations from three replicate samples.
In all plots, the x-axis indicates the degree of cell-surface glycan labeling as measured by FITC fluorescence (FL1). For the plots shown if FIG. 6(a)-(d), the y-axis represents the degree of 7-AAD (FL3, cell viability marker).

[6] = tested on: Jurkat cells treated with Ac4ManNAz (cell-surface azido sialic acids, SiaNAz)
Method: Cultured Jurkat cells were treated with peracetylated N-azidoacetyl mannosamine (Ac4ManNAz) to introduce the corresponding azido sialic acids (SiaNAz) into their cell-surface glycoproteins and lipids.
Jurkat cells were incubated in untreated media or media containing 25 μM Ac4ManNAz. After 3 d, the cells were twice concentrated (500×g, 3 min, 4° C.) and resuspended in 10 mL FACS buffer (PBS containing 1% FCS, 2×10 mL) and cells (approx 350,000 per a well) were placed in a 96 well V-bottom plate. The cells were concentrated by centrifugation (2500×g, 3 min, 4° C.), resuspended in 200 μL cold FACS buffer, and again concentrated by centrifugation (2500×g, 3 min, 4° C.). […] After 1 h, the cells were thrice concentrated by centrifugation (2500×g, 3 min, 4° C.) and resuspended in 200 μL cold FACS buffer. Following and additional concentration by centrifugation (2500×g, 3 min, 4° C.), cells were resuspended in FACS buffer (100 μL) containing FITC-avidin (1:200 dilution of 1 mg/mL stock, Sigma-Aldrich) and incubated in the dark at 4° C. for 15 min. Following the incubation, cells were concentrated by centrifugation, resuspended in 200 μL cold FACS buffer, concentrated by centrifugation, and another FITC-avidin incubation was performed. After the second FITC-avidin labeling, the cells were thrice concentrated by centrifugation (2500×g, 3 min, 4° C.) and resuspended in 200 μL cold FACS buffer. The cells were then diluted to 400 μL for flow cytometry analysis. Flow cytometry was performed on a BD Biosciences FACSCalibur flow cytometer equipped with a 488-nm argon laser. All flow cytometry experiments were performed with three replicate samples.
Jurkat cells were incubated in the presence or absence of 25 μM Ac4ManNAz for 3 d. […] MFI=mean fluorescence intensity and has arbitrary units (Au).
Jurkat cells were incubated with (+Az) or without (−Az) 25 M Ac4ManNAz for 3 days. The cells were labeled with 1 μM cyclooctyne-biotin for various times and then treated with FITC-avidin. […] The degree of labeling was quantified by flow cytometry. The level of fluorescence was reported in mean fluorescence intensity (MFI, arbitrary unit). Error bars represent the standard deviation of three replicate experiments. […] MFI reported as difference between signal of cells +Az and signal of cells −Az.

**Q.** With `O=C(OCc1ccc(C2=NOC(CN3C(=O)c4ccccc4C#Cc4ccccc43)C2)cc1)N1CCN(C(=O)c2ccccc2-c2c3ccc(=O)cc-3oc3cc(O)ccc23)CC1` (stereo not drawn) [BARAC-Fluor] as the compound, how does the “labeling in no-wash experiment” value ([1]; 250 nM, 30 min at rt, imaged without washing (FIG. 9(i)-(p))) read?
**A.** significant labeling above the background

**Q.** What about the “cell surface fluorescence of azide-labeled cells” value ([1]; 5 μM, 5 min at rt, washed, 50 μM Ac4ManNAz (FIG. 9(a)-(h))) of the same compound?
**A.** significant cell surface fluorescence

**Q.** For `O=C1c2ccccc2C#Cc2ccccc2N1CC1CC(c2ccc(CO)cc2)=NO1` (stereo not drawn) [BARAC], which second-order rate constant [2] is on record?
**A.** 0.64 ± 0.06 M⁻¹ s⁻¹

**Q.** What about the stability [3] of the same compound?
**A.** stable to traditional chromatography and storage at room temperature

**Q.** And the second-order rate constant ([4]; benzyl azide, acetonitrile (CD3CN), rt (25° C.), 1:1 at 10 mM)?
**A.** 0.96 M⁻¹ s⁻¹ and 0.96 ± 0.04 M⁻¹ s⁻¹

**Q.** And the “times higher rate constant than an unactivated cyclooctyne” value ([4]; versus unactivated cyclooctyne)?
**A.** over 450 times

**Q.** What about the half-life at 2 mM [5] of the same compound?
**A.** 24 h

**Q.** With BARAC-biotin as the compound, how does the “cytotoxicity compared to cells treated with no cyclooctyne reagent” value (Jurkat cells) read?
**A.** not accompanied by any cytotoxicity

**Q.** What about the “cell labeling at low concentration” value ([6]; 50 nM, 1 h, Jurkat (FIG. 3)) of the same compound?
**A.** significant cell labeling

**Q.** And the “labeling compared with DIFO-biotin and DIBO-biotin” value ([6]; 1 μM cyclooctyne-biotin, after 1 h (FIG. 8(b)))?
**A.** more labeling than DIFO-biotin and DIBO-biotin

**Q.** And the “fold higher signal than either DIFO-biotin or DIBO-biotin” value ([6]; 1 μM, after 1 min (FIG. 8(c)))?
**A.** 10 fold

**Q.** What about the azide-specific cell labeling ([6]; Jurkat ±25 μM Ac4ManNAz 3 d, reagent 1 h, versus FITC-avidin alone (FIG. 3)) of the same compound?
**A.** robust azide-specific labeling with no significant background labeling
